The target in the assay is T1, 14-3-3γ (Homo sapiens, UniProt P61981).
T1 construct: made in house; host or cells: E. coli NiCo21 (DE3)
T1 sequence (P61981 1-247): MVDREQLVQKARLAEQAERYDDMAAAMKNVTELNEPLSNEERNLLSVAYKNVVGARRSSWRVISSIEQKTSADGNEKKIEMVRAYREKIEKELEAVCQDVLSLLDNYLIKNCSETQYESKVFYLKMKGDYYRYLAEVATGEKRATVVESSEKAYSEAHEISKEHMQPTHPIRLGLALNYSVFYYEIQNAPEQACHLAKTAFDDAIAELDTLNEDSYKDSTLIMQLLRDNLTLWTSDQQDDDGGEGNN
The assay can be described thus: Isothermal titration calorimetry (ITC) of 14-3-3 binding to peptide. The settings on record: for ΔG / Kd / ΔH / -TΔS: 25 °C; for Kd: Table S6 (unit as in Table S5). As for the experimental part: 14-3-3γ protein expression (FP/ITC experiments)
A pPROEX HTb expression vector encoding the human 14-3-3 protein gamma (14-3-3γ) with an N-terminal his6-tag was transformed by heat shock into NiCo21 (DE3) competent cells. Single colonies were cultured in 50 mL LB medium (100 µg/mL ampicillin). After overnight incubation at 37 °C, cultures were transferred to 2 L TB media (100 µg/mL ampicillin, 1 mM MgCl2) and incubated at 37 °C until an OD600 nm of 0.8-1.2 was reached. Protein expression was then induced with 0.4 mM isopropyl-β-d-thiogalactoside (IPTG), and cultures were incubated overnight at 18 °C. Cells were harvested by centrifugation (8600 rpm, 20 minutes, 4 °C) and resuspended in lysis buffer (50 mM Hepes, pH 8.0, 300 mM NaCl, 12.5 mM imidazole, 5 mM MgCl2, 2 mM βME) containing cOmplete™ EDTA-free Protease Inhibitor Cocktail tablets (1 tablet/100 ml lysate) and benzonase (1 µl/100 ml). After lysis using a C3 Emulsiflex-C3 homogenizer (Avestin), the cell lysate was cleared by centrifugation (20000 rpm, 30 minutes, 4 °C) and purified using Ni2+-affinity chromatography (Ni-NTA superflow cartridges, Qiagen).
Typically two 5 mL columns (flow 5 mL/min) were used for a 2 L culture in which the lysate was loaded on the column washed with 10 CV wash buffer (50 mM Hepes, pH 8.0, 300 mM NaCl, 25 mM imidazole, 2 mM βME) and eluted in several fractions (2-4 CV) of elution buffer (50 mM Hepes, pH 8.0, 300 mM NaCl, 250 mM imidazole, 2 mM βME). Fractions containing the 14-3-3 protein were combined and dialyzed into 25 mM HEPES pH 8.0, 100 mM NaCl, 10 mM MgCl2, 500 µM TCEP. […]
The peptides 1 and 2a-d were synthesized on 50 µmol scale on a Rink amide MBHA resin (Novabiochem, 0.52 mmol/g loading) using an automated Intavis MultiPep RSi peptide synthesizer.
Deprotection was performed twice per cycle with 20% v/v piperidine in DMF for 8 minutes. Fmoc-protected amino acids were mixed in 5 equivalents of HBTU and 9 equivalents of DIPEA in DMF, and coupled to the resin. With the exception of phosphoserine, which was coupled once for 60 minutes, all amino acids were coupled to the resin twice for 30 minutes. Capping of unreacted amino acids was performed with a mixture of acetic anhydride/pyridine/DMF (1:1:3) for 5 minutes. βAla was incorporated as a spacer between the sequence and Lys(Alloc), to which a FITC fluorophore will be coupled for fluorescence anisotropy studies.
The peptides 1 and 2e-i were synthesized manually on a 50 µmol scale using Rink amide MBHA resin (Novabiochem, 0.52 mmol/g loading) via Fmoc based solid phase peptide synthesis. […]
(lex: 485 ± 20 nm; lem: 535 ± 25 nm; mirror: Dichroic 510; flashes: 20; integration time: 50 ms; settle time:
0 ms; gain: optimal; and Z-position: calculated from well). […]
Data was obtained and averaged based on two
To determine the cooperativity parameters from the 2D-titration of 14-3-3/ChREBP/2d (as described above) we have used the general framework for straightforward model construction of multi-component thermodynamic equilibrium systems as described by Geertjens et al. (2021).10 This general platform generates a model to describe multi-component equilibrium systems when given a system description.
In our case we gave the following system description: […]
α (with 95% confidence interval) and the error-landscape of the determine parameters.
Fluorescence anisotropy (FA) – Selectivity study: Peptides representing 14-3-3 binding partners (including ChREBP) were titrated in a 2-fold dilution series (starting at 100 µM) to 20 nM of fluorescein-labeled peptide 2d in presence and absence of, respectively, 2 µM 14-3-3γ in FA buffer (10 mM HEPES pH 7.4, 150 mM NaCl, 0.1% (v/v) Tween20, 0.1% (w/v) BSA). Dilution series were made in a polystyrene (non-binding) low-volume Corning Black Round Bottom 384-well plates (Corning 4514 or 4511).
Measurements were performed directly after plate preparation, using a Tecan Infinite F500 plate reader at room temperature (lex: 485 ± 20 nm; lem: 535 ± 25 nm; mirror: Dichroic 510; flashes: 20; integration […]

Setting [1] is: Table S5, ΔG minus ΔG of peptide 1, ITC, first unlabelled line (replicate 1).
Where [2] appears, read: Table S5, ΔG minus ΔG of peptide 1, ITC, second unlabelled line (replicate 2).
Setting [3] is: Table S5, ΔG of peptide minus ΔG of peptide 1, ITC, mean of n = 2.
Where [4] appears, read: ITC, average of two runs, read-out: Kd.
The mark [5] stands for this setting: Table S6 (unit given in Fig. 4 legend), ITC, average of two runs.
The mark [6] stands for this setting: Table S6, ITC, average of two runs.

The text below walks through data of paper PMC9667936, “Functional mapping of the 14-3-3 hub protein as a guide to design 14-3-3 molecular glues” (Chemical Science, 2022).

Each structure is given as a SMILES string. Read-outs that look alike come from different tables or passages of the source. Where a SMILES comes first, the peptide text is derived from it. [ ]: non-standard residue; d: D form. ξ: configuration not given here. Phe(4-NO2) = N[C@@H](Cc1ccc([N+](=O)[O-])cc1)C(=O)O; ξAla(4-thiazolyl) = NC(Cc1cscn1)C(=O)O; pS = N[C@@H](COP(=O)(O)O)C(=O)O; β3hS = N[C@@H](CO)CC(=O)O; Nva = CCC[C@H](N)C(=O)O; βAla = NCCC(=O)O

What is called Kd is the equilibrium constant for the complex coming apart.

As to `CCC[C@H](NC(=O)[C@H](N)CCCCN)C(=O)N[C@@H](Cc1ccc([N+](=O)[O-])cc1)C(=O)NC(Cc1cscn1)C(=O)N[C@@H](COP(=O)(O)O)C(=O)N[C@@H](Cc1ccc([N+](=O)[O-])cc1)C(=O)N[C@@H](CO)CC(=O)NCCC(=O)N[C@@H](Cc1ccc(O)cc1)C(=O)N[C@@H](CCCCN)C(N)=O` (stereo partly drawn) [5a] (H-[dK][Nva][Phe(4-NO2)][ξAla(4-thiazolyl)][pS][Phe(4-NO2)][β3hS][βAla]YK-NH2; N-terminus and C-terminus assumed), the ΔG runs as follows: (Table S5, ITC, mean of n = 2) -7.8 kcal/mol; (Table S5, ITC, replicate 1) -7.9 kcal/mol; (Table S5, ITC, replicate 2) -7.6 kcal/mol; under setting [6], -7,78 kcal mol^-1; (Table S6, ITC, run 1) -7,925 kcal mol^-1; (Table S6, ITC, run 2) -7,626 kcal mol^-1. In addition, the “ΔΔG to 1” value under setting [1] came out at 2.1 kcal/mol, the “ΔΔG to 1” value under setting [2] is 2.4 kcal/mol and the “ΔΔG to 1” value under setting [3] is reported as 2.2 kcal/mol. For the same molecule, the Kd under setting [4] came to 2060 nM; the Kd (ITC, run 1) is 1,55E-06 M; the Kd (ITC, run 2) is 2,57E-06 M. Further, the ΔH under setting [5] is listed as -5,21 kcal mol^-1; the ΔH (Table S6, ITC, run 1) is given as -6,091 kcal mol^-1; the ΔH (Table S6, ITC, run 2) is on record as -4,328 kcal mol^-1. Besides, the “-TΔS” value was -2,57 kcal mol^-1 under setting [6]; -1,834 kcal mol^-1 (Table S6, ITC, run 1); -3,299 kcal mol^-1 (Table S6, ITC, run 2).

Take `CCC[C@H](NC(=O)[C@H](N)CCCCN)C(=O)N[C@@H](Cc1ccc([N+](=O)[O-])cc1)C(=O)NC(Cc1cscn1)C(=O)N[C@@H](COP(=O)(O)O)C(=O)N[C@@H](Cc1ccc([N+](=O)[O-])cc1)C(=O)N[C@@H](CO)CC(=O)NCCC(=O)N[C@@H](Cc1ccccc1)C(=O)N[C@@H](CCCCN)C(N)=O` (stereo partly drawn) [5b] (H-[dK][Nva][Phe(4-NO2)][ξAla(4-thiazolyl)][pS][Phe(4-NO2)][β3hS][βAla]FK-NH2; N-terminus and C-terminus assumed): where the note is “ITC, n = 2, Fig. 4c”, the “increase of enthalpy (ΔH) on removal of the nitro group, relative to peptide 1” value is ~6 kcal/mol. For the same molecule, the ΔG is -7.9 kcal/mol (Table S5, ITC, mean of n = 2); -7.9 kcal/mol (Table S5, ITC, replicate 1); -7.8 kcal/mol (Table S5, ITC, replicate 2); -7,88 kcal mol^-1 under setting [6]; -7,943 kcal mol^-1 (Table S6, ITC, run 1); -7,821 kcal mol^-1 (Table S6, ITC, run 2). The “ΔΔG to 1” value by setting is: under setting [1], 2.1 kcal/mol; under setting [2], 2.2 kcal/mol; under setting [3], 2.1 kcal/mol. The Kd is 1450 nM under setting [4]; 1,06E-06 M (ITC, run 1); 1,85E-06 M (ITC, run 2). The ΔH runs as follows: under setting [5], -4,72 kcal mol^-1; (Table S6, ITC, run 1) -4,716 kcal mol^-1; (Table S6, ITC, run 2) -4,725 kcal mol^-1. Moreover, the “-TΔS” value was -3,16 kcal mol^-1 under setting [6]; -3,227 kcal mol^-1 (Table S6, ITC, run 1); -3,096 kcal mol^-1 (Table S6, ITC, run 2).
